Results as given in patent US20240327353A1.
Like-named read-outs stand apart in the source and are kept apart here.

Columns and labels:
5-HT2AR = target: T1, 5-HT2AR (Homo sapiens, UniProt P28223); test: Radioligand binding (competitive displacement and saturation), cell membranes; conditions: for Ki: pKi 5-HT2AR
T1 construct: host or cells: HEK293, transient
Description: (§1) Transfections were performed for 48 hours.

H1R = target: T2, H1R (Homo sapiens, UniProt P35367); test: as above
T2 construct: host or cells: CHO, transient
T2 sequence (P35367 whole entry): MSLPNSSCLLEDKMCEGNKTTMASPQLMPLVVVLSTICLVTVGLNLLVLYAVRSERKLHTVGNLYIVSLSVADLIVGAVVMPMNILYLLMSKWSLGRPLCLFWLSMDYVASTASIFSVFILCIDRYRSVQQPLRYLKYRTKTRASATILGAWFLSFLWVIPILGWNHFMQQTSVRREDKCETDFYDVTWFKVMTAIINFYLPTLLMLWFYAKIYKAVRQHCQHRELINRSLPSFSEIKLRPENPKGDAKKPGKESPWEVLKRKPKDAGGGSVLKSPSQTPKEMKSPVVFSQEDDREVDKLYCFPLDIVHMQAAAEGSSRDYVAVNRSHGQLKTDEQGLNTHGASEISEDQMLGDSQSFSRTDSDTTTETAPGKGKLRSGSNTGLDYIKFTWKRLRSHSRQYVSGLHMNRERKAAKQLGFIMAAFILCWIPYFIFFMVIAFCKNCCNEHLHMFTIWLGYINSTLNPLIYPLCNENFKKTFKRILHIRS
Description: as §1

5-HT2CR [1] = target: T3, 5-HT2CR (Homo sapiens, UniProt P28335); test: as above
T3 sequence (P28335 33-458): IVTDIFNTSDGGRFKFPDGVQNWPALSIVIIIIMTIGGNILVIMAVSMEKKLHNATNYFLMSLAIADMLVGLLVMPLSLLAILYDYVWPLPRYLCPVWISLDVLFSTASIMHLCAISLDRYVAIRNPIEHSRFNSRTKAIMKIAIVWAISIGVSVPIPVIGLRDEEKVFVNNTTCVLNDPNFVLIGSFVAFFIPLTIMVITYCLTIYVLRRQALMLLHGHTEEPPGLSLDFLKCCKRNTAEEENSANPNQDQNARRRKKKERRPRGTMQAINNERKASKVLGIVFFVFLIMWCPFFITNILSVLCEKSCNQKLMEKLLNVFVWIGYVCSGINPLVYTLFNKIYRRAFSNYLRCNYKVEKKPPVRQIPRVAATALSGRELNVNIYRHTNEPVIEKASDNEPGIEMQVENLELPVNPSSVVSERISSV

5-HT2BR [2] = target: T4, 5-HT2BR (Homo sapiens, UniProt P41595); test: as above
T4 sequence (P41595 whole entry): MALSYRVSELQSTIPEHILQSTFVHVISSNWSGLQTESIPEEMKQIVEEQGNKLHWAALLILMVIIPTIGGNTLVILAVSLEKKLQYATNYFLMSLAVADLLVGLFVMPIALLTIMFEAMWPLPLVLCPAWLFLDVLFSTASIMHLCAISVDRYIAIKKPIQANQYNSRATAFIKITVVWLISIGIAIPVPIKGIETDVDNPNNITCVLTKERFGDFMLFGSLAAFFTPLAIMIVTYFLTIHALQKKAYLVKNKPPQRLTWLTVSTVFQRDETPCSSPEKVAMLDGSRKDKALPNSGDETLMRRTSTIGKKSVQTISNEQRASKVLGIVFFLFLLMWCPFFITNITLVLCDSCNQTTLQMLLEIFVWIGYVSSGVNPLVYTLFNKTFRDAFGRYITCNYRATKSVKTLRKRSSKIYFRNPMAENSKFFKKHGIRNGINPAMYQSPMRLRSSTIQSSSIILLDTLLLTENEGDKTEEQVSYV

5-HT2BR [3] = target: T4, 5-HT2BR; test: biochemical
5-HT2CR [4] = target: T3, 5-HT2CR; test: biochemical
human wild-type 5-HT2C = human wild-type 5-HT2C (Homo sapiens, UniProt P28335); test: IP-One HTRF IP1 accumulation assay
5-HT2BR [5] = target: T4, 5-HT2BR
5-HT2CR [6] = target: T3, 5-HT2CR
5-HT1A = target: T5, 5-HT1A (Homo sapiens, UniProt P08908); test: Radioligand binding, cell membranes; conditions: [^3H]5-CT; mean of n independent experiments
T5 construct: host or cells: HEK293T, transient
T5 sequence (P08908 1-422): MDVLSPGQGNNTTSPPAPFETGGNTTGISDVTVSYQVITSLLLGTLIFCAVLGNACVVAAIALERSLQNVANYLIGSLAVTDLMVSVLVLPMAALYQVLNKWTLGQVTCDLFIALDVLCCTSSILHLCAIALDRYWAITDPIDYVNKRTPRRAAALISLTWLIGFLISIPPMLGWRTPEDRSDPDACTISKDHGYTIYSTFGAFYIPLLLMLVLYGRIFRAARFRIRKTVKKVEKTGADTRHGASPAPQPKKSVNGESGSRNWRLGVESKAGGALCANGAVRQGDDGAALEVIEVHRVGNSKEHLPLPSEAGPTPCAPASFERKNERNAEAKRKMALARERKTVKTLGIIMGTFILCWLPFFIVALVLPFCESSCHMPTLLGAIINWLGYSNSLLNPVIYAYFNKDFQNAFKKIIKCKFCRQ
Description: as §1

5-HT7 = 5-HT7 (Homo sapiens, UniProt P34969); test: Radioligand binding, cell membranes; conditions: [^3H]5-CT; mean of n independent experiments
5-HT7, sequence (P34969 1-445 isoform P34969-2): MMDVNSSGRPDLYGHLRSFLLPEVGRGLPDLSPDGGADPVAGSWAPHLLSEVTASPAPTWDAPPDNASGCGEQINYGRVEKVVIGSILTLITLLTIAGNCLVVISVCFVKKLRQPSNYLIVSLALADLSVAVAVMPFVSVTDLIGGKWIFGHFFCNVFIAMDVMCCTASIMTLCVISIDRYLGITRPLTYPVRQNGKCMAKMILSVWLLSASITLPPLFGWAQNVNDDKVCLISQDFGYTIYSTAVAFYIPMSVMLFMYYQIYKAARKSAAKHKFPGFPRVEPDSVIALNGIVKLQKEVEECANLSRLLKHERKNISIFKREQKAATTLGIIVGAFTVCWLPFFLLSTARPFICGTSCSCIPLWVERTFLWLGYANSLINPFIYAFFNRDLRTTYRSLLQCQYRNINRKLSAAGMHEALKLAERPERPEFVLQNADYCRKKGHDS
Description: as §1

D2L = D2L (Homo sapiens, UniProt P14416); test: Radioligand binding, cell membranes; conditions: [^3H]spiperone; mean of n independent experiments
D2L, sequence (P14416 whole entry): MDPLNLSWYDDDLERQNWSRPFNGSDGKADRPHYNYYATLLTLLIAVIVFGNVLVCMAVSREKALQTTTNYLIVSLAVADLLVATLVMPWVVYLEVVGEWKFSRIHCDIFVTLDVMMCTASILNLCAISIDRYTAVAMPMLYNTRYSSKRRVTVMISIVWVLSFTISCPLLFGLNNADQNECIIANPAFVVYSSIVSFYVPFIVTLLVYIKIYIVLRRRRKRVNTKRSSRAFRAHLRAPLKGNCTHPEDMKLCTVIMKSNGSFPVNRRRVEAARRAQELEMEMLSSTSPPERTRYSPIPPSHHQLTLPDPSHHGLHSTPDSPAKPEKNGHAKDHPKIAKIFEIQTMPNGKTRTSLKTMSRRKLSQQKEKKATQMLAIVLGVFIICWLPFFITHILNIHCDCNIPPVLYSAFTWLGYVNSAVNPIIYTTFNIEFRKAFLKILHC
Description: as §1

D3 = D3 (Homo sapiens, UniProt P35462); test: Radioligand binding, cell membranes
D3, sequence (P35462 whole entry): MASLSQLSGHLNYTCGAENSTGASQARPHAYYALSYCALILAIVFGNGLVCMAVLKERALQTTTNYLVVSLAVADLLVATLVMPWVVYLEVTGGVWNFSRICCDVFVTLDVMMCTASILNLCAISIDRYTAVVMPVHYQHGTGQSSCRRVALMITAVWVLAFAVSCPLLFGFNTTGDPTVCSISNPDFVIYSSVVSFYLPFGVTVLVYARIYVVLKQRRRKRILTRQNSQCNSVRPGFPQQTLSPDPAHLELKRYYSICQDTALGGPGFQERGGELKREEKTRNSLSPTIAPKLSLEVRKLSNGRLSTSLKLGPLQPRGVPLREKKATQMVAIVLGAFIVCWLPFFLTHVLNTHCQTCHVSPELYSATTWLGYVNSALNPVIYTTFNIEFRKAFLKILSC
Description: as §1

C322K^6.34 5-HT2AR = target: T6, C322K^6.34 5-HT2AR (Homo sapiens, UniProt P28223, C322K); test: IP1 accumulation assay, inverse agonism at constitutively activated receptor; format: cell-based
T6 construct: expressed in transfected cells; host or cells: clonal cells
T6 sequence (P28223 whole entry C322K): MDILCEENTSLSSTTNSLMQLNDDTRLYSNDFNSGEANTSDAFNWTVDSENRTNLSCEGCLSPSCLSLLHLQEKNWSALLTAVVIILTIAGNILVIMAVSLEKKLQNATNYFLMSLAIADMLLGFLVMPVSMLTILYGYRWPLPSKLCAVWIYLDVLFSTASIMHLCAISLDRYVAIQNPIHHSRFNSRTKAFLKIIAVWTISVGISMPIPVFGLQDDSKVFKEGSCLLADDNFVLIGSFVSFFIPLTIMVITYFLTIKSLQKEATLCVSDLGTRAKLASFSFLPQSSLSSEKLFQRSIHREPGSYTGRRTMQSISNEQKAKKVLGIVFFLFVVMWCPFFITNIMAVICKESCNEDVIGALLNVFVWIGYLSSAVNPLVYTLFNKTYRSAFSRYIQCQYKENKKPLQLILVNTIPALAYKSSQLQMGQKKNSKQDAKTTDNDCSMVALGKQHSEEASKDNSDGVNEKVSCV
Description: as §1

male C57BL/6J mice [7] = test: Locomotor activity, compound alone (open field); format: in vivo; conditions: 3 mg*kg^−1 s.c. (FIG. 3C)
α1A-adrenergic receptor = target: T7, α1A-adrenergic receptor (Homo sapiens, UniProt P35348)
T7 sequence (P35348 1-466): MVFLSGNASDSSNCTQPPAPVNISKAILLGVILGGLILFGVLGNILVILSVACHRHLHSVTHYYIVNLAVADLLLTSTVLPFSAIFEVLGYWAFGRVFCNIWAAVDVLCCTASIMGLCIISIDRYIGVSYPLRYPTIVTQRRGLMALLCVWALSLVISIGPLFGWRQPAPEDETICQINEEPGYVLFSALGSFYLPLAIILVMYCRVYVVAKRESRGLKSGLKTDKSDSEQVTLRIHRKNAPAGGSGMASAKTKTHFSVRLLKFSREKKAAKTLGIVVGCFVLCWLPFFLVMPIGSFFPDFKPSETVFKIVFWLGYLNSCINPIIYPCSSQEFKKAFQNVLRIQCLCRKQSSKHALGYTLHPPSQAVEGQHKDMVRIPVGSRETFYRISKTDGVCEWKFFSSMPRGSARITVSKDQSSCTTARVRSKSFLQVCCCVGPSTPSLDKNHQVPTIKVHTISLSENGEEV

α1B-adrenergic receptor = target: T8, α1B-adrenergic receptor (Homo sapiens, UniProt P35368)
T8 sequence (P35368 1-520): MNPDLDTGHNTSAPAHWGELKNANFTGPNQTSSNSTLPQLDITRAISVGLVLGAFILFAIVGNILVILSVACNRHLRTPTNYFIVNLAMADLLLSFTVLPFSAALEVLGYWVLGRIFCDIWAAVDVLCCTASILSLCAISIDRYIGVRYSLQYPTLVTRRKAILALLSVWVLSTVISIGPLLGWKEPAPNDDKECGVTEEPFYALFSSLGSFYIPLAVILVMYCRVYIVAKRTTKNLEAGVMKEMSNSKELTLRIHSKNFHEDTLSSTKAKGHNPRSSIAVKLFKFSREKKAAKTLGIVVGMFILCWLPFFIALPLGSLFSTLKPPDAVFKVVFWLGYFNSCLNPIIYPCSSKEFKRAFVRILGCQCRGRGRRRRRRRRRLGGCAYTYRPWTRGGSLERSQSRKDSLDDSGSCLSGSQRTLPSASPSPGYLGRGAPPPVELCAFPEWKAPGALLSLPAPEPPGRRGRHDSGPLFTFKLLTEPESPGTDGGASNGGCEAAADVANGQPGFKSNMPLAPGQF

human wild-type 5-HT2B = human wild-type 5-HT2B (Homo sapiens, UniProt P41595); test: IP-One HTRF IP1 accumulation assay
human wild-type 5-HT2B, sequence (P41595 whole entry): as the sequence (P41595 whole entry) above

male C57BL/6J mice [8] = test: (±)-DOI-elicited head twitch response; conditions: 1 mg*kg^−1 (±)-DOI s.c.; pretreatment s.c.; every dose tested (PIMA, (2S,4R)-2k 0.3 or 3 mg kg^−1; (2R,4R)-3h 3.0 or 5.6 mg kg^−1)
D231F^5.35 5-HT2AR = D231F^5.35 5-HT2AR (Homo sapiens, UniProt P28223, D231F); test: Exploratory saturation radioligand binding at point-mutated 5-HT2AR; conditions: membranes of transfected HEK293 cells (FIGS. 14A-14D)
D231F^5.35 5-HT2AR, sequence (P28223 whole entry D231F): as the sequence (P28223 whole entry C322K) above, with D231F, K322C counted along it

[9] = displacement of [^3H]ketanserin, mean of n independent experiments, ± SD where n ≥ 5

T1 sequence (P28223 whole entry): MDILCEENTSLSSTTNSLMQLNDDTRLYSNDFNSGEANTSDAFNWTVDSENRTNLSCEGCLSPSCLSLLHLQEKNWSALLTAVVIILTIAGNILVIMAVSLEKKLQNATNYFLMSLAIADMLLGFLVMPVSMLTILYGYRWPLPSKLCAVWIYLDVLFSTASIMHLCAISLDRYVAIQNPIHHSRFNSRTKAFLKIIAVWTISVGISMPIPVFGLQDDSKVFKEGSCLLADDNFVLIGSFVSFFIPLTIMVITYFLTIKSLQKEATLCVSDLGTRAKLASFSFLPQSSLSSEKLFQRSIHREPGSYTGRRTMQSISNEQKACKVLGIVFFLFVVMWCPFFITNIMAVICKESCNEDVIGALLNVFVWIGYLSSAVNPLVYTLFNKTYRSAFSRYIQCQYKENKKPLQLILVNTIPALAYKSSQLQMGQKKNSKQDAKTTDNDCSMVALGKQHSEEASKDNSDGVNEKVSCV

For `CN(C)[C@@H]1Cc2ccccc2[C@H](c2cccc(-c3ccncc3)c2)C1` (single isomer, unassigned) [(2R,4R)-3e, Cis-4-(3-(pyridin-4-yl)phenyl)-N,N-dimethyl-1,2,3,4-tetrahydronaphthalen-2-amine], the Ki (5-HT2AR; [9]) was 43.7 nM, the Ki (H1R; pKi H1R, displacement of [^3H]mepyramine, mean of n independent experiments, ± SD where n ≥ 5) was 22.4 nM and the “pKi 5-HT2CR” value (5-HT2CR [1]) was 5.90^(2) 5.99-5.80 7.37^(3) 7.44-7.27 5.61^(2) 5.69-5.54 6.26^(2) 6.42-6.10.

In the case of `CN(C)[C@@H]1Cc2ccccc2[C@H](c2cccc(-c3ccccc3F)c2)C1` (single isomer, unassigned) [(2R,4R)-3g, Cis-4-(2′-fluoro-[1,1′-biphenyl]-3-yl)-N,N-dimethyl-1,2,3,4-tetrahydronaphthalen-2-amine], the Ki (5-HT2AR; [9]) is reported as 2.04 nM, the “pKi H1R” value (H1R) is reported as 6.93^(2) 7.02-6.84 8.75^(4) 9.1-8.62 ND 6.54^(2) 6.67-6.40 and the “pKi 5-HT2BR” value (5-HT2BR [2]) is reported as 7.36^(2) 7.36-7.35 7.09^(3) 7.23-6.90 6.53^(3) 6.71-6.30 6.33^(2) 6.49-6.17.

With `CN(C)[C@@H]1Cc2ccccc2[C@@H](c2cccc(-c3ccncc3)c2)C1` (single isomer, unassigned) [(2R,4S)-2e, Trans-4-(3-(pyridin-4-yl)phenyl)-N,N-dimethyl-1,2,3,4-tetrahydronaphthalen-2-amine] the “pKi 5-HT2AR” value (5-HT2AR) was 6.06^(2) 6.14-5.98 8.13^(3) 8.51-7.82 5.81^(2) 6.01-5.62 7.36^(2) 7.48-7.24 and the “pKi 5-HT2CR” value (5-HT2CR [1]) was 5.90^(2) 5.99-5.80 7.37^(3) 7.44-7.27 5.61^(2) 5.69-5.54 6.26^(2) 6.42-6.10.

`CN(C)[C@@H]1Cc2ccccc2[C@@H](c2cccc(-c3cccs3)c2)C1` (single isomer, unassigned) [(2S,4R)-2c, Trans-4-(3-(thiophen-2-yl)phenyl)-N,N-dimethyl-1,2,3,4-tetrahydronaphthalen-2-amine] was tested, and the Ki (5-HT2AR) was 2.14 nM, the Ki (H1R; read-out: pKi H1R (converted)) was 1.15 nM and the Ki (5-HT2BR [3]) was 79.4 nM. The Ki (5-HT2CR [4]) was 3.8 nM, the IC50 (human wild-type 5-HT2C) was 251 nM and the “inverse agonist efficacy (Imax) at 5-HT2CRs” value (human wild-type 5-HT2C; below basal) was 58%. For the same compound, the Ki (5-HT2CR [1]; pKi at the 5-HT2CR, single experiment excluded from the reported data, excluded: excessive or incomplete radioligand displacement) was 0.832 nM.

For `CN(C)[C@@H]1Cc2ccccc2[C@H](c2cccc(Br)c2)C1` (single isomer, unassigned) [(2S,4S)-3a, Cis-4-(3-bromophenyl)-N, N-dimethyl-1,2,3,4-tetrahydronaphthalen-2-amine], the “pKi 5-HT2AR” value (5-HT2AR) was 6.40^(2) 6.41-6.40 7.50^(3) 7.74-7.33, the Ki (5-HT2BR [3]) was 389 nM and the “pKi 5-HT2CR” value (5-HT2CR [1]) was 6.71^(3) 6.93-6.47 7.24^(4) 7.44-7.06.

With `CN(C)[C@@H]1Cc2ccccc2[C@H](c2cccc(-c3ccncc3)c2)C1` (single isomer, unassigned) [(2S,4S)-3e, Cis-4-(3-(pyridin-4-yl)phenyl)-N,N-dimethyl-1,2,3,4-tetrahydronaphthalen-2-amine] the “pKi 5-HT2AR” value (5-HT2AR) was 6.06^(2) 6.14-5.98 8.13^(3) 8.51-7.82 5.81^(2) 6.01-5.62 7.36^(2) 7.48-7.24 and the “pKi 5-HT2CR” value (5-HT2CR [1]) was 5.90^(2) 5.99-5.80 7.37^(3) 7.44-7.27 5.61^(2) 5.69-5.54 6.26^(2) 6.42-6.10.

`CN(C)[C@H]1Cc2ccccc2[C@H](c2cccc(-c3cccs3)c2)C1` [(2R,4S)-2c, (2R,4S)-trans-4-(3-(thiophen-2-yl)phenyl)-N,N-dimethyl-1,2,3,4-tetrahydronaphthalen-2-amine] was tested, and the Ki (5-HT2AR) was 19.5 nM, the “pKi H1R” value (H1R) was 6.90 and the Ki (5-HT2BR [5]) was 214 nM. The Ki (5-HT2CR [6]) was 33.1 nM and the “agonist activity at 5-HT2CRs, concentration-response” value (human wild-type 5-HT2C; FIG. 7B) was “no consistent effect on IP1-accumulation”.

`CN(C)c1ccc(-c2cccc([C@H]3C[C@H](N(C)C)Cc4ccccc43)c2)cc1` [(2S,4R)-2k, Trans-4-(4′-(dimethylamino)-[1,1′-biphenyl]-3-yl)-N,N-dimethyl-1,2,3,4-tetra-hydronaph-thalen-2-amine] was tested, and the “pKi 5-HT1A” value (5-HT1A) was 5.58^(3), the “pKi 5-HT7” value (5-HT7) was 6.28^(3) and the “pKi D2L” value (D2L) was 5.70^(3). The “pKi D3” value (D3) was 6.92^(3), the “inverse agonist efficacy at C322K^6.34 5-HT2ARs (reduction of basal IP1 accumulation)” value (C322K^6.34 5-HT2AR) was roughly 60% and the “locomotor activity, compound administered alone” value (male C57BL/6J mice [7]) was “preserving general locomotor ability”. For the same compound, the Ki (5-HT2BR [5]) was 79.4 nM, the Ki (α1A-adrenergic receptor) was 617 nM and the Ki (α1B-adrenergic receptor) was 646 nM. The “pKb at 5-HT2BRs” value (human wild-type 5-HT2B) was 5.59±0.50, the “partial agonist efficacy at 5-HT2BRs, exploratory screening” value (human wild-type 5-HT2B; 10 μM ligand, change from basal IP1 normalized to 5-HT (FIG. 2A)) was roughly 13 % 5-HT and the “agonist activity at 5-HT2BRs, full concentration-response” value (human wild-type 5-HT2B; FIG. 7A) was “did not reach statistical significance”. For the same compound, the “inverse agonist efficacy (Imax) at 5-HT2CRs” value (human wild-type 5-HT2C) was roughly 75%, the “head twitch response elicited by (±)-DOI” value (male C57BL/6J mice [8]) was “significantly attenuated the head twitch response” and the Ki (5-HT2BR [2]; pKi at the 5-HT2BR, single experiment excluded from the reported data, excluded: excessive or incomplete radioligand displacement) was 47.9 nM.

`CN(C)[C@@H]1Cc2ccccc2[C@H](c2cccc(-c3ccccc3)c2)C1` [(2S,4S)-3f, (2S,4S)-cis-4-([1,1′-biphenyl]-3-yl)-N,N-dimethyl-1,2,3,4-tetrahydronaphthalen-2-amine] showed a Ki (5-HT2BR [5]) of 407 nM and a Ki (5-HT2CR [6]) of 151 nM.

`O=C(CCCN1CCC2(CC1)C(=O)NCN2c1ccccc1)c1ccc(F)cc1` [[^3H]Spiperone] was tested, and the “specific binding to D231F^5.35 5-HT2ARs” value (D231F^5.35 5-HT2AR) was “no specific binding is detected”.
